Measurements published in US4847273A, “Dihydropyridine derivatives” (Hoffmann-La Roche Inc., priority 1985, dated 1989).

Tests used:
[1] = Haemodynamic parameters in the narcotized dog (test B); type: in vivo; conditions: 0.03 mg/kg p.o.
Text: B. Haemodynamic parameters in the narcotized dog:
The 4 most important measurement parameters (with respective measurement units) of the haemodynamic experiment are: (1) CBF: Coronary Blood Flow (in ml/min)--the velocity of blood flow through the coronary arteries; (2) HR: heart rate (in beats/min)--the heart frequency; (3) BP: blood pressure (in mm Hg)--the blood pressure; and (4) dp/dt: rate of increase in left ventricular pressure (in mm Hg/sec)--the rate of increase of the left ventricular pressure, as a measurement of the contractility force of the heart. The values are given as the %maximum variation from the initial value (Δ%) and the duration of this variation (t) per dosage administered.
There is thus obtained not only an overall picture of the activity of the substance, but also an estimation as to the potential selectivity for a specific part of the circulatory system in the entire organism. After the administration of an anaesthetic, the dog is intubated and respired artificially. Blood pH, pCO2, pO2 and haemoglobin are measured hourly with a blood-gas analyzer. The blood pressure (systolic and diastolic) is measured with a probe in the aorta abdominalis. The heart frequency is recorded by means of a tachometer, which is disengaged from the pressure pulse. For the other measurements the heart must firstly be opened in order that a probe can be inserted in the left ventricle (heart chamber) for the pressure measurements (dp/dt). The coronary blood flow is measured with a flowing probe in the left coronary artery (descendens).

[2] = system: ^3 H-nifedipine (or ^3 H-nitrendipine) binding, rabbit or guinea pig heart membranes; assay: 3H-Nifedipine binding determination on homogenates or partially-cleaned membranes of rabbit or guinea pig heart (test A); conditions: maximum inhibition of specific binding; nifedipine established as 100%
Description: A. ^3 H-Nifedipine binding determination:
The determination is carried out on homogenates or on partially-cleaned membranes of rabbit or guinea pig heart. The reaction mixture (0.3 ml) consists of 0.2-0.8 mg of membrane protein, 1 nM of ^3 H-nifedipine (or 0.25 nM of ^3 H-nitrendipine) and various concentrations of the test substance. The incubation lasts 30 minutes at 25° C. or 37° C. and is stopped by dilution with the incubation buffer; a filtration is subsequently carried out. The filter-bound radioactivity is measured with a scintillation counter. Specific binding, that is, receptor-bound, is defined as the difference between total and unspecific-bound radioactivity. The unspecific binding is determined in the presence of an excess of non-radioactive nifedipine (1 μM).
The activity (potency) of a compound in this test is defined by the IC50 and %maximum inhibition values (%max. inhibition). The IC50 is the substance concentration (in mol/l) which produces a half-maximum inhibition of the specific ^3 H-nifedipine (or ^3 H-nitrendipine) binding. The maximum inhibition of the specific binding is given by the %maximum inhibition value; this value is established as 100% for the reference compound nifedipine. Both parameters are extrapolated from a concentration-binding curve.

Compound | Bp (blood pressure), % maximum variation from the initial value (Δ%) [1] [%] | Bp, duration of variation (t) [1] | CBF (Coronary Blood Flow), % maximum variation from the initial value (Δ%) [1] [%] | CBF, duration of variation (t) [1] | HR (heart rate), % maximum variation from the initial value (Δ%) [1] [%] | HR, duration of variation (t) [1] | dp/dt (rate of increase in left ventricular pressure), % maximum variation from the initial value (Δ%) [1] [%] | dp/dt, duration of variation (t) [1] | % max. inhib. [2] [%]
CCCOCCOC(=O)C1=C(C)NC(C)=C(S(=O)(=O)N(C)C)C1c1cccc([N+](=O)[O-])c1 (stereo not drawn) [A, 5-(dimethylsulfamoyl)-1,4-dihydro-2,6-dimethyl-4-(3-nitrophenyl)nicotinic acid 2-propoxyethyl ester] | -55 | 60 ' | 50 | 60 ' | -19 | 40 ' | -42 | 60 ' | 100
CCCCN(C)S(=O)(=O)C1=C(C)NC(C)=C(C(=O)OC(C)C)C1c1cccc([N+](=O)[O-])c1 (stereo not drawn) [B, 5-(butylmethylsulfamoyl)-1,4-dihydro-2,6-dimethyl-4-(3-nitrophenyl)nicotinic acid isopropyl ester] | -30 | 24 ' | 78 | 40 ' | -11 | > 30 ' | -2 | 20 ' | 100
COCCN(C)S(=O)(=O)C1=C(C)NC(C)=C(C(=O)OC(C)C)C1c1cccc([N+](=O)[O-])c1 (stereo not drawn) [C, 1,4-dihydro-2,6-dimethyl-5-[(2-methoxyethyl)methylsulfamoyl]-4-(3-nitrophenyl)nicotinic acid isopropyl ester] | -32 | > 60 ' | 108 | 20 ' | -11 | > 60 ' | -16 | > 60 ' | 100
